Experimental data published in patent US20240246913A1, “2-CARBOXYL-INDOLE INHIBITORS OF METALLO-BETA-LACTAMASES” (Oxford University Innovation Limited, priority 2021, published 2024).
Where two headings read alike, the source gives them in different places.

Experiments:
Assay type in all cases: biochemical
VIM-2 = VIM-2 (Escherichia coli, UniProt Q5U7L7); experiment: MBL inhibition, FC-5 fluorescence assay, VIM-2
Procedure: (§1) Inhibitors were tested using a panel of the clinically relevant B1 MBLs (NDM-1, VIM-1, -2 and IMP-1). Activities were assayed by monitoring the release of a fluorophore following the enzymatic breakdown of the cephalosporin FC-5 (https://pubs.acs.org/doi/abs/10.1021/jm400769b). FC-5 assays were conducted in clear bottomed 384 black well microplates (Greiner); the initial rate of reaction was assessed by monitoring the fluorescence intensity (λex=380 nm and λem=460 nm) using a Pherstar FS (BMG LabTech) plate reader. Initial rates of reaction were determined and dose-response analyses conducted in GraphPad Prism. Dose-response curves were fitted using the log(inhibitor) vs normalized response—variable slope model of GraphPad Prism 12. Each concentration point for routine screening was conducted with 4 intra-plate replicates.

NDM-1 = NDM-1 (Klebsiella pneumoniae, UniProt C7C422); experiment: MBL inhibition, FC-5 fluorescence assay, NDM-1
NDM-1, sequence (C7C422 29-270, looked up, species assumed): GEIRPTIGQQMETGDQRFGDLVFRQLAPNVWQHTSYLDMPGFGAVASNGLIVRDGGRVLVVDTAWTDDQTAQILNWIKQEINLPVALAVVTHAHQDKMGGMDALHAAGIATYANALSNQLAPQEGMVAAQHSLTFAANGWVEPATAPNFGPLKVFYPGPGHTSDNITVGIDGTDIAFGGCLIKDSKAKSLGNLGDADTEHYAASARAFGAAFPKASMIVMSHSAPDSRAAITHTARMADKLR
Procedure: as §1

IMP-1 = IMP-1 (Serratia marcescens, UniProt P52699); experiment: MBL inhibition, FC-5 fluorescence assay, IMP-1
IMP-1, sequence (P52699 19-246, looked up, species assumed): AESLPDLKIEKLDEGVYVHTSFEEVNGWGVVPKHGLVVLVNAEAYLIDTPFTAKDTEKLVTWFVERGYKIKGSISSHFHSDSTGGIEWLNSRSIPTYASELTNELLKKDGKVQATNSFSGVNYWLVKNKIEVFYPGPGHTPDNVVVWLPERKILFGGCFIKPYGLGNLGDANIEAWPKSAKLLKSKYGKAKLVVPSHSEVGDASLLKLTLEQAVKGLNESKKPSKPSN
Procedure: as §1

VIM-1 = VIM-1 (Pseudomonas aeruginosa, UniProt A0A0F7KYQ8); experiment: MBL inhibition, FC-5 fluorescence assay, VIM-1
Procedure: as §1

[1] = FC-5 cephalosporin substrate, ranges of obtained pIC50, read-out: pIC50 VIM-2 (converted)
[2] = FC-5 cephalosporin substrate, fluorescence, ranges of obtained pIC50, read-out: pIC50 NDM-1 (converted)
[3] = FC-5 cephalosporin substrate, fluorescence, ranges of obtained pIC50, read-out: pIC50 IMP-1 (converted)
[4] = FC-5 cephalosporin substrate, ranges of obtained pIC50, read-out: pIC50 VIM-1 (converted)

Compound	IC50 (VIM-2; [1]) [nM]	IC50 (NDM-1; [2]) [nM]	IC50 (IMP-1; [3]) [nM]	IC50 (VIM-1; [4]) [nM]	IC50 (VIM-2; pIC50 VIM-2, FC-5 cephalosporin substrate, ranges of obtained pIC50) [nM]	IC50 (NDM-1) [nM]	IC50 (IMP-1) [nM]	IC50 (VIM-1; pIC50 VIM-1, FC-5 cephalosporin substrate, ranges of obtained pIC50) [nM]
CS(=O)(=O)Cc1ccc(-c2c(C(=O)O)[nH]c3c(COCc4ccc(CN)cc4)cccc23)cc1F [IC-85, 7-(((4-(Ammoniomethyl)benzyl)oxy)methyl)-3-(3-fluoro-4-((methylsulfonyl)methyl)phenyl)-1H-indole-2-carboxylate]	> 10	0.1 to 1	> 10	> 10				
CC(OCc1cnn[nH]1)c1cccc2c(-c3ccc(CS(C)(=O)=O)c(F)c3)c(C(=O)O)[nH]c12 (stereo not drawn) [IC-91, 7-(1-((1H-1,2,3-triazol-5-yl)methoxy)ethyl)-3-(3-fluoro-4-((methylsulfonyl)methyl)phenyl)-1H-indole-2-carboxylic acid]	> 10	> 10	> 10	> 10				
CC(Nc1ncc(CCCN)o1)c1cccc2c(-c3ccc(CS(C)(=O)=O)c(F)c3)c(C(=O)O)[nH]c12 (stereo not drawn) [IC-93, 7-(1-((5-(3-Aminopropyl)oxazol-2-yl)amino)ethyl)-3-(3-fluoro-4-((methylsulfonyl)methyl)phenyl)-1H-indole-2-carboxylic acid]	1 to 10	1 to 10	> 10	> 10				
CC(Nc1ncc(CCN)o1)c1cccc2c(-c3ccc(CS(C)(=O)=O)c(F)c3)c(C(=O)O)[nH]c12 (stereo not drawn) [IC-94, 7-(1-((5-(2-aminoethyl)oxazol-2-yl)amino)ethyl)-3-(3-fluoro-4-((methylsulfonyl)methyl)phenyl)-1H-indole-2-carboxylic acid]	1 to 10	1 to 10	> 10	> 10				
CC(OC(=O)Nc1ccc(CN)cc1)c1cccc2c(-c3ccc(CS(C)(=O)=O)c(F)c3)c(C(=O)O)[nH]c12 (stereo not drawn) [IC-96, 7-(1-(((4-(Aminomethyl)phenyl)carbamoyl)oxy)ethyl)-3-(3-fluoro-4-((methylsulfonyl)methyl)phenyl)-1H-indole-2-carboxylic acid]	1 to 10	1 to 10	> 10	> 10				
CC(c1cccc2c(-c3ccc(CS(C)(=O)=O)c(F)c3)c(C(=O)O)[nH]c12)N1C(=O)c2cc(O)c(O)cc2C1=O (stereo not drawn) [IC-98, 7-[1-(5,6-Dihydroxy-1,3-dioxo-2,3-dihydro-1H-isoindol-2-yl)ethyl]-3-[3-fluoro-4-(methanesulfonylmethyl)phenyl]-1H-indole-2-carboxylic acid]	> 10	> 10	> 10	> 10				
CC(NC(=O)Oc1ccc(CN)cc1)c1cccc2c(-c3ccc(CS(C)(=O)=O)c(F)c3)c(C(=O)O)[nH]c12 (stereo not drawn) [IC-101, 7-(1-(((4-(aminomethyl)phenoxy)carbonyl)amino)ethyl)-3-(3-fluoro-4-((methylsulfonyl)methyl)phenyl)-1H-indole-2-carboxylic acid]					1 to 10	1 to 10	> 10	> 10
CC(NC(=O)Nc1ccc(CN)cc1)c1cccc2c(-c3ccc(CS(C)(=O)=O)c(F)c3)c(C(=O)O)[nH]c12 (stereo not drawn) [IC-102, 7-(1-(3-(4-(aminomethyl)phenyl)ureido)ethyl)-3-(3-fluoro-4-((methylsulfonyl)methyl)phenyl)-1H-indole-2-carboxylic acid]	1 to 10	1 to 10	> 10	> 10				
C[C@@H](c1cccc2c(-c3ccc(CS(C)(=O)=O)c(F)c3)c(-c3nnn[nH]3)[nH]c12)N1C[C@]2(C[C@@H](CN)C2)OC1=O [IC-107, (2S,4r)-2-(Aminomethyl)-7-((S)-1-(3-(3-fluoro-4-((methylsulfonyl)methyl)phenyl)-2-(1H-tetrazole-5-yl)-1H-indol-7-yl)ethyl)-5-oxa-7-azaspiro[3.4]octan-6-one]	> 10	1 to 10	> 10	1 to 10				
